pIC50: −log10 of the molar value.
Each compound was assayed on P. Falciparum NF54 (assay: Plasmodium falciparum in vitro assay ([3H]-hypoxanthine incorporation)). Conditions: Plasmodium falciparum, Erythrocyte, P. Falciparum NF54, erythrocytic stages in human red blood cells, 50% human serum.
Format: cell-based
Procedure: In Vitro Antimalarial Activity: Plasmodium falciparum In Vitro Assay: In vitro activity against erythrocytic stages of P. Falciparum in human red blood cells is determined using a [^3H]-hypoxanthine incorporation assay. One strain sensitive to all drugs (P. […] After 48 hours, [^3H]-hypoxanthine (0.5 μCi) is added to each well of a plate. The plates are incubated for a further 24 hours under the same conditions then harvested with a Betaplate cell harvester (Wallac) and washed with distilled water. The dried filters are inserted into a plastic foil with 10 mL of scintillation fluid and counted in a Betaplate liquid scintillation counter. IC50 values are calculated from sigmoidal inhibition curves using Microsoft Excel.

`Cc1cc(Nc2ccc(CN(C(=O)/C=C/c3ccc(C(F)(F)F)cc3)C3CCN(CC4CC4)CC3)cc2)ccn1` [Example 31, (E)-N-(1-Cyclopropylmethyl-piperidin-4-yl)-N-[4-(2-methyl-pyridin-4-ylamino)-benzyl]-3-(4-trifluoromethyl-phenyl)-acrylamide] and `CCCN1CCC(N(Cc2ccc(Nc3ccnc(C)c3)cc2)C(=O)/C=C/c2ccc(C(F)(F)F)cc2)CC1` [Example 33, (E)-N-[4-(2-Methyl-pyridin-4-ylamino)-benzyl]-N-(1-propyl-piperidin-4-yl)-3-(4-trifluoromethyl-phenyl)-acrylamide] are within 0.2 log units of each other in pIC50: 7.41 for the first, 7.38 for the second.

`Cc1cc(Nc2ccc(CN(C(=O)/C=C/c3ccc(C(F)(F)F)cc3)C3CCN(Cc4nc(C)oc4C)CC3)cc2)ccn1` [Example 32, (E)-N-[1-(2,5-Dimethyl-oxazol-4-ylmethyl)-piperidin-4-yl]-N-[4-(2-methyl-pyridin-4-ylamino)-benzyl]-3-(4-trifluoromethyl-phenyl)-acrylamide] and `Cc1cc(Nc2ccc(CN(C(=O)/C=C/c3ccc(C(F)(F)F)cc3)C3CCN(Cc4c(C)noc4C)CC3)cc2)ccn1` [Example 44, (E)-N-[1-(3,5-Dimethyl-isoxazol-4-ylmethyl)-piperidin-4-yl]-N-[4-(2-methyl-pyridin-4-ylamino)-benzyl]-3-(4-trifluoromethyl-phenyl)-acrylamide] are within 0.2 log units of each other in pIC50: 7.05 for the first, 7.19 for the second.

Going from `Cc1cc(Nc2ccc(CN(C(=O)/C=C/c3ccc(C(F)(F)F)cc3)C3CCN(Cc4cc(C)on4)CC3)cc2)ccn1` [Example 34, (E)-N-[1-(5-Methyl-isoxazol-3-ylmethyl)-piperidin-4-yl]-N-[4-(2-methyl-pyridin-4-ylamino)-benzyl]-3-(4-trifluoromethyl-phenyl)-acrylamide] to `Cc1cc(Nc2ccc(CN(C(=O)/C=C/c3ccc(C(F)(F)F)cc3)C3CCN(Cc4coc(C)n4)CC3)cc2)ccn1` [Example 36, (E)-N-[1-(2-Methyl-oxazol-4-ylmethyl)-piperidin-4-yl]-N-[4-(2-methyl-pyridin-4-ylamino)-benzyl]-3-(4-trifluoromethyl-phenyl)-acrylamide], the pIC50 rises from 6.62 to 6.84 (0.22 log units). The second is the more potent here.

`Cc1cc(Nc2ccc(CN(C(=O)/C=C/c3ccc(C(F)(F)F)cc3)C3CCN(Cc4scnc4C)CC3)cc2)ccn1` [Example 35, (E)-N-[4-(2-Methyl-pyridin-4-ylamino)-benzyl]-N-[1-(4-methyl-thiazol-5-ylmethyl)-piperidin-4-yl]-3-(4-trifluoromethyl-phenyl)-acrylamide] and `Cc1cc(Nc2ccc(CN(C(=O)/C=C/c3ccc(C(F)(F)F)cc3)C3CCN(Cc4nc(C)cs4)CC3)cc2)ccn1` [Example 42, (E)-N-[4-(2-Methyl-pyridin-4-ylamino)-benzyl]-N-[1-(4-methyl-thiazol-2-ylmethyl)-piperidin-4-yl]-3-(4-trifluoromethyl-phenyl)-acrylamide] are within 0.2 log units of each other in pIC50: 6.61 for the first, 6.46 for the second.

First: Cc1cc(Nc2ccc(CN(C(=O)/C=C/c3ccc(C(F)(F)F)cc3)C3CCN(Cc4ccccc4)CC3)cc2)ccn1 [Example 37, (E)-N-(1-Benzyl-piperidin-4-yl)-N-[4-(2-methyl-pyridin-4-ylamino)-benzyl]-3-(4-trifluoromethyl-phenyl)-acrylamide]
Second: Cc1cc(Nc2ccc(CN(C(=O)/C=C/c3ccc(C(F)(F)F)cc3)C3CCN(Cc4cccnc4)CC3)cc2)ccn1 [Example 48, (E)-N-[4-(2-Methyl-pyridin-4-ylamino)-benzyl]-N-(1-pyridin-3-ylmethyl-piperidin-4-yl)-3-(4-trifluoromethyl-phenyl)-acrylamide]
The pIC50 of the first is 0.29 log units higher: 7.29 for the first, 7.00 for the second. The first is the more potent here.

Compared with `Cc1cc(Nc2ccc(CN(C(=O)/C=C/c3ccc(C(F)(F)F)cc3)C3CCN(Cc4cnc5ccccn45)CC3)cc2)ccn1` [Example 38, (E)-N-(1-Imidazo[1,2-a]pyridin-3-ylmethyl-piperidin-4-yl)-N-[4-(2-methyl-pyridin-4-ylamino)-benzyl]-3-(4-trifluoromethyl-phenyl)-acrylamide], `Cc1cc(Nc2ccc(CN(C(=O)/C=C/c3ccc(C(F)(F)F)cc3)C3CCN(Cc4ncc5ccccn45)CC3)cc2)ccn1` [Example 46, (E)-N-(1-Imidazo[1,5-a]pyridin-3-ylmethyl-piperidin-4-yl)-N-[4-(2-methyl-pyridin-4-ylamino)-benzyl]-3-(4-trifluoromethyl-phenyl)-acrylamide] is 0.22 log units lower in pIC50: 7.00 for the first, 6.78 for the second. The first is the more potent here.

`Cc1cc(Nc2ccc(CN(C(=O)/C=C/c3ccc(C(F)(F)F)cc3)C3CCN(CCC(F)(F)F)CC3)cc2)ccn1` [Example 39, (E)-N-[4-(2-Methyl-pyridin-4-ylamino)-benzyl]-3-(4-trifluoromethyl-phenyl)-N-[1-(3,3,3-trifluoro-propyl)-piperidin-4-yl]-acrylamide] and `Cc1cc(Nc2ccc(CN(C(=O)/C=C/c3ccc(C(F)(F)F)cc3)C3CCN(Cc4nccn4C)CC3)cc2)ccn1` [Example 41, (E)-N-[1-(1-Methyl-1H-imidazol-2-ylmethyl)-piperidin-4-yl]-N-[4-(2-methyl-pyridin-4-ylamino)-benzyl]-3-(4-trifluoromethyl-phenyl)-acrylamide] are within 0.2 log units of each other in pIC50: 6.81 for the first, 6.68 for the second.

`Cc1cc(Nc2ccc(CN(C(=O)/C=C/c3ccc(C(F)(F)F)cc3)C3CCN(Cc4nccs4)CC3)cc2)ccn1` [Example 40, (E)-N-[4-(2-Methyl-pyridin-4-ylamino)-benzyl]-N-(1-thiazol-2-ylmethyl-piperidin-4-yl)-3-(4-trifluoromethyl-phenyl)-acrylamide] and `Cc1cc(Nc2ccc(CN(C(=O)/C=C/c3ccc(C(F)(F)F)cc3)C3CCN(Cc4ncccn4)CC3)cc2)ccn1` [Example 47, (E)-N-[4-(2-Methyl-pyridin-4-ylamino)-benzyl]-N-(1-pyrimidin-2-ylmethyl-piperidin-4-yl)-3-(4-trifluoromethyl-phenyl)-acrylamide] are within 0.2 log units of each other in pIC50: 6.47 for the first, 6.46 for the second.

Compared with `Cc1cc(Nc2ccc(CN(C(=O)/C=C/c3ccc(C(F)(F)F)cc3)C3CCN(Cc4cc(C)nn4C)CC3)cc2)ccn1` [Example 43, (E)-N-[1-(2,5-Dimethyl-2H-pyrazol-3-ylmethyl)-piperidin-4-yl]-N-[4-(2-methyl-pyridin-4-ylamino)-benzyl]-3-(4-trifluoromethyl-phenyl)-acrylamide], `Cc1cc(Nc2ccc(CN(C(=O)/C=C/c3ccc(C(F)(F)F)cc3)C3CCN(Cc4cnc(C)n4C)CC3)cc2)ccn1` [Example 52, (E)-N-[1-(2,3-Dimethyl-3H-imidazol-4-ylmethyl)-piperidin-4-yl]-N-[4-(2-methyl-pyridin-4-ylamino)-benzyl]-3-(4-trifluoromethyl-phenyl)-acrylamide] is 0.24 log units lower in pIC50: 7.08 for the first, 6.84 for the second. The first is the more potent here.

First: Cc1cc(Nc2ccc(CN(C(=O)/C=C/c3ccc(C(F)(F)F)cc3)C3CCN(Cc4ncn5ccccc45)CC3)cc2)ccn1 [Example 45, (E)-N-(1-Imidazo[1,5-a]pyridin-1-ylmethyl-piperidin-4-yl)-N-[4-(2-methyl-pyridin-4-ylamino)-benzyl]-3-(4-trifluoromethyl-phenyl)-acrylamide]
Second: Cc1cc(Nc2ccc(CN(C(=O)/C=C/c3ccc(C(F)(F)F)cc3)C3CCN(Cc4cnn(C)c4)CC3)cc2)ccn1 [Example 50, (E)-N-[1-(1-Methyl-1H-pyrazol-4-ylmethyl)-piperidin-4-yl]-N-[4-(2-methyl-pyridin-4-ylamino)-benzyl]-3-(4-trifluoromethyl-phenyl)-acrylamide]
The pIC50 of the first is 0.27 log units lower: 6.77 for the first, 7.04 for the second.

`Cc1cc(Nc2ccc(CN(C(=O)/C=C/c3ccc(C(F)(F)F)cc3)C3CCN(Cc4cncnc4)CC3)cc2)ccn1` [Example 49, (E)-N-[4-(2-Methyl-pyridin-4-ylamino)-benzyl]-N-(1-pyrimidin-5-ylmethyl-piperidin-4-yl)-3-(4-trifluoromethyl-phenyl)-acrylamide] and `Cc1cc(Nc2ccc(CN(C(=O)/C=C/c3ccc(C(F)(F)F)cc3)C3CCN(Cc4cnc(C)nc4)CC3)cc2)ccn1` [Example 51, (E)-N-[4-(2-Methyl-pyridin-4-ylamino)-benzyl]-N-[1-(2-methyl-pyrimidin-5-ylmethyl)-piperidin-4-yl]-3-(4-trifluoromethyl-phenyl)-acrylamide] are within 0.2 log units of each other in pIC50: 6.55 for the first, 6.57 for the second.

Compared with `Cc1cc(Nc2ccc(CN(C(=O)/C=C/c3ccc(C(F)(F)F)cc3)C3CCN(Cc4ccc(O)c(CN(C)C)c4)CC3)cc2)ccn1` [Example 53, (E)-N-[1-(3-Dimethylaminomethyl-4-hydroxy-benzyl)-piperidin-4-yl]-N-[4-(2-methyl-pyridin-4-ylamino)-benzyl]-3-(4-trifluoromethyl-phenyl)-acrylamide], `CCN(CC)Cc1cc(CN2CCC(N(Cc3ccc(Nc4ccnc(C)c4)cc3)C(=O)/C=C/c3ccc(C(F)(F)F)cc3)CC2)ccc1O` [Example 54, (E)-N-[1-(3-Diethylaminomethyl-4-hydroxy-benzyl)-piperidin-4-yl]-N-[4-(2-methyl-pyridin-4-ylamino)-benzyl]-3-(4-trifluoromethyl-phenyl)-acrylamide] is higher in pIC50: 7.92 for the first, greater than 8.10 for the second.

`CN1CCC(N2CCC[C@H](N(Cc3ccc(N(C)c4ccncc4)cc3)C(=O)/C=C/c3ccc(C(F)(F)F)cc3)C2)CC1` [Example 55, (S,E)-N-(4-(methyl(pyridin-4-yl)amino)benzyl)-N-(1′-methyl-[1,4′-bipiperidin]-3-yl)-3-(4-(trifluoromethyl)phenyl)acrylamide] and `CN1CCC(N2CCC[C@@H](N(Cc3ccc(N(C)c4ccncc4)cc3)C(=O)/C=C/c3ccc(C(F)(F)F)cc3)C2)CC1` [Example 56, (R,E)-N-(4-(methyl(pyridin-4-yl)amino)benzyl)-N-(1′-methyl-[1,4′-bipiperidin]-3-yl)-3-(4-(trifluoromethyl)phenyl)acrylamide] are within 0.2 log units of each other in pIC50: 7.92 for the first, 7.96 for the second.

For `CN(c1ccncc1)c1ccc(CN(C(=O)/C=C/c2ccc(C(F)(F)F)cc2)[C@H]2CCCN(C3CCCC3)C2)cc1` [Example 58, (S,E)-N-(1-cyclopentylpiperidin-3-yl)-N-(4-(methyl(pyridin-4-yl)amino)benzyl)-3-(4-(trifluoromethyl)phenyl)acrylamide], the pIC50 was 6.83.
